Measured values as given in ChEMBL document CHEMBL4715821, “Discovery of 4-ethoxy-7H-pyrrolo[2,3-d]pyrimidin-2-amines as potent, selective and orally bioavailable LRRK2 inhibitors” (Bioorg Med Chem Lett, 2018).

How the values were obtained:
[1] = biological target: Dual specificity tyrosine-phosphorylation-regulated kinase 3 (Homo sapiens) (UniProt O43781); test: Inhibition of DYRK3 (unknown origin) assessed as residual activity at 1 uM by Kinomescan method relative to control
[2] = Dose normalized AUC (0 to t) in Han-Wistar rat blood at 10 mg/kg, po measured up to 7 hrs by UPLC-MS/MS analysis; type: ADME, organism-based; details: in vivo
[3] = Unbound fraction in Han-Wistar rat brain at 10 mg/kg, po; type: ADME, organism-based
[4] = biological target: RAC-gamma serine/threonine-protein kinase (Homo sapiens) (UniProt Q9Y243); test: Inhibition of wild-type human partial length AKT3 expressed in bacterial expression system assessed as residual activity at 1 uM by Kinomescan method relative to control
[5] = biological target: Bone morphogenetic protein receptor type-1A (Homo sapiens) (UniProt P36894); test: Inhibition of wild-type human partial length BMPR1A (Q214 to I532 residues) expressed in bacterial expression system assessed as residual activity at 1 uM by Kinomescan method relative to control
[6] = biological target: CDK6/cyclin D1 (Homo sapiens) (UniProt P24385+Q00534); test: Inhibition of wild-type human full length CDK6 (M1 to A326 residues)/cyclin D1 expressed in mammalian expression system assessed as residual activity at 1 uM by Kinomescan method relative to control
[7] = biological target: Casein kinase I isoform epsilon (Homo sapiens) (UniProt P49674); test: Inhibition of CK1epsilon (unknown origin) assessed as residual activity at 1 uM by Kinomescan method relative to control
[8] = biological target: Epidermal growth factor receptor (Homo sapiens) (UniProt P00533); test: Inhibition of wild-type human partial length EGFR (R669 to V1011 residues) expressed in bacterial expression system assessed as residual activity at 1 uM by Kinomescan method relative to control
[9] = biological target: Tyrosine-protein kinase Fer (Homo sapiens) (UniProt P16591); test: Inhibition of wild-type human partial length FER (S542 to T822 residues) expressed in bacterial expression system assessed as residual activity at 1 uM by Kinomescan method relative to control
[10] = biological target: Receptor-type tyrosine-protein kinase FLT3 (Homo sapiens) (UniProt P36888); test: Inhibition of wild-type human partial length FLT3 (V592 to Y969 residues) expressed in bacterial expression system assessed as residual activity at 1 uM by Kinomescan method relative to control
[11] = biological target: G protein-coupled receptor kinase 6 (Homo sapiens) (UniProt P43250); test: Inhibition of GRK6 (unknown origin) assessed as residual activity at 1 uM by Kinomescan method relative to control
[12] = biological target: Serine/threonine-protein kinase haspin (Homo sapiens) (UniProt Q8TF76); test: Inhibition of wild-type human partial length HASPIN (I452 to K798 residues) expressed in mammalian expression system assessed as residual activity at 1 uM by Kinomescan method relative to control
[13] = biological target: Mitogen-activated protein kinase kinase kinase kinase 4 (Homo sapiens) (UniProt O95819); test: Inhibition of wild-type human partial length MAP4K4 (M1 to R310 residues) expressed in bacterial expression system assessed as residual activity at 1 uM by Kinomescan method relative to control
[14] = biological target: Insulin-like growth factor 1 receptor (Homo sapiens) (UniProt P08069); test: Inhibition of wild-type human partial length IGF1R (L972 to D1294 residues) expressed in bacterial expression system assessed as residual activity at 1 uM by Kinomescan method relative to control
[15] = biological target: Vascular endothelial growth factor receptor 2 (Homo sapiens) (UniProt P35968); test: Inhibition of wild-type human partial length VEGFR2 (R787 to P1253 residues) expressed in mammalian expression system assessed as residual activity at 1 uM by Kinomescan method relative to control
[16] = biological target: Serine/threonine-protein kinase MRCK beta (Homo sapiens) (UniProt Q9Y5S2); test: Inhibition of wild-type human partial length MRCKB (L56 to S417 residues) expressed in bacterial expression system assessed as residual activity at 1 uM by Kinomescan method relative to control
[17] = biological target: Serine/threonine-protein kinase PAK 3 (Homo sapiens) (UniProt O75914); test: Inhibition of wild-type human full length PAK3 (M1 to R544 residues) expressed in bacterial expression system assessed as residual activity at 1 uM by Kinomescan method relative to control
[18] = biological target: Serine/threonine-protein kinase PAK 4 (Homo sapiens) (UniProt O96013); test: Inhibition of wild-type human partial length PAK4 (Q144 to R438 residues) expressed in bacterial expression system assessed as residual activity at 1 uM by Kinomescan method relative to control
[19] = biological target: Serine/threonine-protein kinase PLK3 (Homo sapiens) (UniProt Q9H4B4); test: Inhibition of wild-type human partial length PLK3 (A42 to L334 residues) expressed in mammalian expression system assessed as residual activity at 1 uM by Kinomescan method relative to control
[20] = biological target: Protein-tyrosine kinase 2-beta (Homo sapiens) (UniProt Q14289); test: Inhibition of wild-type human full length PYK2 (M1 to E967 residues) expressed in bacterial expression system assessed as residual activity at 1 uM by Kinomescan method relative to control
[21] = biological target: Mitogen-activated protein kinase kinase kinase 7 (Homo sapiens) (UniProt O43318); test: Inhibition of wild-type human partial length TAK1 (M1 to Q303 residues) expressed in mammalian expression system assessed as residual activity at 1 uM by Kinomescan method relative to control
[22] = biological target: Serine/threonine-protein kinase tousled-like 2 (Homo sapiens) (UniProt Q86UE8); test: Inhibition of wild-type human partial length TLK2 (E424 to N749 residues) expressed in bacterial expression system assessed as residual activity at 1 uM by Kinomescan method relative to control
[23] = biological target: BDNF/NT-3 growth factors receptor (Homo sapiens) (UniProt Q16620); test: Inhibition of wild-type human partial length TRKB (Q547 to G838 residues) expressed in mammalian expression system assessed as residual activity at 1 uM by Kinomescan method relative to control
[24] = biological target: Tyrosine-protein kinase TXK (Homo sapiens) (UniProt P42681); test: Inhibition of wild-type human partial length TXK (L238 to W527 residues) expressed in bacterial expression system assessed as residual activity at 1 uM by Kinomescan method relative to control
[25] = biological target: Serine/threonine-protein kinase DCLK1 (Homo sapiens) (UniProt O15075); test: Inhibition of wild-type human partial length DCAMKL1 (L270 to A662 residues) expressed in mammalian expression system assessed as residual activity at 1 uM by Kinomescan method relative to control
[26] = biological target: LIM domain kinase 2 (Homo sapiens) (UniProt P53671); test: Inhibition of wild-type human full length LIMK2 (M1 to P638 residues) expressed in bacterial expression system assessed as residual activity at 1 uM by Kinomescan method relative to control
[27] = biological target: Testis-specific serine/threonine-protein kinase 6 (Homo sapiens) (UniProt Q9BXA6); test: Inhibition of SSTK (unknown origin) assessed as residual activity at 1 uM by Kinomescan method relative to control
Chain of Testis-specific serine/threonine-protein kinase 6 (Homo sapiens) (Q9BXA6 whole entry): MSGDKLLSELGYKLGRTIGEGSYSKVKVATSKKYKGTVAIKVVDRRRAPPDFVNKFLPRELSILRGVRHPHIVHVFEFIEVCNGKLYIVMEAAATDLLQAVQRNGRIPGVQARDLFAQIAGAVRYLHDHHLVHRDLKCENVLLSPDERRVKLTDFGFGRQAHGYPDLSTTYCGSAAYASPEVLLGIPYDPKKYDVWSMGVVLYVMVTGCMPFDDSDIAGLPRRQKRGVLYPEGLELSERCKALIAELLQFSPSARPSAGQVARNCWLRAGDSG

Chain of LIM domain kinase 2 (Homo sapiens) (P53671 whole entry, looked up, the tested form may be a part): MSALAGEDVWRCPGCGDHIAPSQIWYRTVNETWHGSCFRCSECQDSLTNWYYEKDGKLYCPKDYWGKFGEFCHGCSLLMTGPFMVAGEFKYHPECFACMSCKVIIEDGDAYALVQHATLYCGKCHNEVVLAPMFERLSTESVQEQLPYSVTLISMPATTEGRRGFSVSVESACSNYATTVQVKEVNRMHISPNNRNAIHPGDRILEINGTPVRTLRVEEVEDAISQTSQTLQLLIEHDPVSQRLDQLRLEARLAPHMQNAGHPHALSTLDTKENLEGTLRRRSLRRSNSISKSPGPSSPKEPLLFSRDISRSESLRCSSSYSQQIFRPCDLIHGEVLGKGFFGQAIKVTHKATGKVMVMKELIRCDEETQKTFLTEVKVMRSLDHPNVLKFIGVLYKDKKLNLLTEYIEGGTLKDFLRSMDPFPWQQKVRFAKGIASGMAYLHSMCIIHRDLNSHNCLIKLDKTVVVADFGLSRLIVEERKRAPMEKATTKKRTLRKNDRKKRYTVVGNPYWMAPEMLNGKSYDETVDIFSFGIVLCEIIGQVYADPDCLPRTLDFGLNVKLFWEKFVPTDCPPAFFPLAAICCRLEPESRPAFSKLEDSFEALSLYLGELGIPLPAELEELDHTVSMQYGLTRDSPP
Chain of Tyrosine-protein kinase Fer (Homo sapiens) (P16591 whole entry, looked up, the tested form may be a part): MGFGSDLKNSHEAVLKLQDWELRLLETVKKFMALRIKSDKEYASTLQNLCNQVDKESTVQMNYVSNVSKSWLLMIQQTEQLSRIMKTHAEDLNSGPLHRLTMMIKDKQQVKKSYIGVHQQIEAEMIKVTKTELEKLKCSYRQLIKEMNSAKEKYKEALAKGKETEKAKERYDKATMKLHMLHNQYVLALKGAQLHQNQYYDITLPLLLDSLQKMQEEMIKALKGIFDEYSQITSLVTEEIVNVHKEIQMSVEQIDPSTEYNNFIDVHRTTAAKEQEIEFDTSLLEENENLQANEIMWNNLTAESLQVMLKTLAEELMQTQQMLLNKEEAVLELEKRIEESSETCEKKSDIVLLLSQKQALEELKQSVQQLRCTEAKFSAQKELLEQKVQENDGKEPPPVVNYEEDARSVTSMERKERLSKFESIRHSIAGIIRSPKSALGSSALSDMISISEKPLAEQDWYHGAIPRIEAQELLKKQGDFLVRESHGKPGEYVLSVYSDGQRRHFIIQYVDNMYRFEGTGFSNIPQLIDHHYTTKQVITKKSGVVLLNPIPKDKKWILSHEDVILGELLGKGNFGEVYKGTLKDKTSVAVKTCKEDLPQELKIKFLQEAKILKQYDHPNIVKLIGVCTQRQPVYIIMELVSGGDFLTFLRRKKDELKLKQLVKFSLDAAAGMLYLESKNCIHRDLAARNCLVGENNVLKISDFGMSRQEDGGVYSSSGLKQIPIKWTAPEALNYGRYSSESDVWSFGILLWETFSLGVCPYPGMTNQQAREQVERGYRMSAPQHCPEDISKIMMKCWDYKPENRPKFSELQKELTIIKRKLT
Chain of Insulin-like growth factor 1 receptor (Homo sapiens) (P08069 31-736 limits assumed): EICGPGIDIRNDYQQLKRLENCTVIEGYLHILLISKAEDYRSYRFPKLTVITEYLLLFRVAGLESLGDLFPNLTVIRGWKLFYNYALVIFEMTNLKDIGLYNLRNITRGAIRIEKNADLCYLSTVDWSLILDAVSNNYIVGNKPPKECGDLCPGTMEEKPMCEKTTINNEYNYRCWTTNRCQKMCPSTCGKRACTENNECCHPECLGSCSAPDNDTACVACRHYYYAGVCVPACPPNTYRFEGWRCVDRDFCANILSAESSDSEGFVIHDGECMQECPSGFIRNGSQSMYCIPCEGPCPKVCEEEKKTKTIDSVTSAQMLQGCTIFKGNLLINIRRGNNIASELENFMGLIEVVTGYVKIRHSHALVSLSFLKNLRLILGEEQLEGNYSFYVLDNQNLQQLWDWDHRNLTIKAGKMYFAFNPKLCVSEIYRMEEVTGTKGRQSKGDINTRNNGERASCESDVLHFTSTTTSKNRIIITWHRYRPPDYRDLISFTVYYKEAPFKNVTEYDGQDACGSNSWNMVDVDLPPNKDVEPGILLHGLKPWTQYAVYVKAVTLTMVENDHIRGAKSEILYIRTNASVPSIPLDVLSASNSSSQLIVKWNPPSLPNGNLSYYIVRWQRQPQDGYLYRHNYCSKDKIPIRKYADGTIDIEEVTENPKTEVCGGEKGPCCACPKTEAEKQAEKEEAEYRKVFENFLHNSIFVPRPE
Chain of Insulin-like growth factor 1 receptor (Homo sapiens) (P08069 741-1367 limits assumed): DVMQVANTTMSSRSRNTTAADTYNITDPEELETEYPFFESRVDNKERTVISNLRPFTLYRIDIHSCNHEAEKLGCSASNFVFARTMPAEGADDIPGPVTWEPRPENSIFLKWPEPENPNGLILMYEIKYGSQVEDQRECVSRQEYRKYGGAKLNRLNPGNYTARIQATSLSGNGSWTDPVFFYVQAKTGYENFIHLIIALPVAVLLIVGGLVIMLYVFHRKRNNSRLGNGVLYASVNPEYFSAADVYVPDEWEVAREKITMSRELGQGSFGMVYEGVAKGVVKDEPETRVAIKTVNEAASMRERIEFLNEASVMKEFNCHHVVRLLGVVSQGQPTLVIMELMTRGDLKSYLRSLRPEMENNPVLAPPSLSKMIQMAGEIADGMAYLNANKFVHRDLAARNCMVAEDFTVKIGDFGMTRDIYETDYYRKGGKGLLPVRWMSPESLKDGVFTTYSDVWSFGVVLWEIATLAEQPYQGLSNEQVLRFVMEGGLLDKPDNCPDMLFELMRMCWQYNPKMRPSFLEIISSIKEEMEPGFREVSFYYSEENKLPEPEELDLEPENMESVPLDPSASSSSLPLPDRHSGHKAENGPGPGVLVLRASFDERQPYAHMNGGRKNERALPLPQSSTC
Chain of Serine/threonine-protein kinase MRCK beta (Homo sapiens) (Q9Y5S2 whole entry, the tested form may be a part): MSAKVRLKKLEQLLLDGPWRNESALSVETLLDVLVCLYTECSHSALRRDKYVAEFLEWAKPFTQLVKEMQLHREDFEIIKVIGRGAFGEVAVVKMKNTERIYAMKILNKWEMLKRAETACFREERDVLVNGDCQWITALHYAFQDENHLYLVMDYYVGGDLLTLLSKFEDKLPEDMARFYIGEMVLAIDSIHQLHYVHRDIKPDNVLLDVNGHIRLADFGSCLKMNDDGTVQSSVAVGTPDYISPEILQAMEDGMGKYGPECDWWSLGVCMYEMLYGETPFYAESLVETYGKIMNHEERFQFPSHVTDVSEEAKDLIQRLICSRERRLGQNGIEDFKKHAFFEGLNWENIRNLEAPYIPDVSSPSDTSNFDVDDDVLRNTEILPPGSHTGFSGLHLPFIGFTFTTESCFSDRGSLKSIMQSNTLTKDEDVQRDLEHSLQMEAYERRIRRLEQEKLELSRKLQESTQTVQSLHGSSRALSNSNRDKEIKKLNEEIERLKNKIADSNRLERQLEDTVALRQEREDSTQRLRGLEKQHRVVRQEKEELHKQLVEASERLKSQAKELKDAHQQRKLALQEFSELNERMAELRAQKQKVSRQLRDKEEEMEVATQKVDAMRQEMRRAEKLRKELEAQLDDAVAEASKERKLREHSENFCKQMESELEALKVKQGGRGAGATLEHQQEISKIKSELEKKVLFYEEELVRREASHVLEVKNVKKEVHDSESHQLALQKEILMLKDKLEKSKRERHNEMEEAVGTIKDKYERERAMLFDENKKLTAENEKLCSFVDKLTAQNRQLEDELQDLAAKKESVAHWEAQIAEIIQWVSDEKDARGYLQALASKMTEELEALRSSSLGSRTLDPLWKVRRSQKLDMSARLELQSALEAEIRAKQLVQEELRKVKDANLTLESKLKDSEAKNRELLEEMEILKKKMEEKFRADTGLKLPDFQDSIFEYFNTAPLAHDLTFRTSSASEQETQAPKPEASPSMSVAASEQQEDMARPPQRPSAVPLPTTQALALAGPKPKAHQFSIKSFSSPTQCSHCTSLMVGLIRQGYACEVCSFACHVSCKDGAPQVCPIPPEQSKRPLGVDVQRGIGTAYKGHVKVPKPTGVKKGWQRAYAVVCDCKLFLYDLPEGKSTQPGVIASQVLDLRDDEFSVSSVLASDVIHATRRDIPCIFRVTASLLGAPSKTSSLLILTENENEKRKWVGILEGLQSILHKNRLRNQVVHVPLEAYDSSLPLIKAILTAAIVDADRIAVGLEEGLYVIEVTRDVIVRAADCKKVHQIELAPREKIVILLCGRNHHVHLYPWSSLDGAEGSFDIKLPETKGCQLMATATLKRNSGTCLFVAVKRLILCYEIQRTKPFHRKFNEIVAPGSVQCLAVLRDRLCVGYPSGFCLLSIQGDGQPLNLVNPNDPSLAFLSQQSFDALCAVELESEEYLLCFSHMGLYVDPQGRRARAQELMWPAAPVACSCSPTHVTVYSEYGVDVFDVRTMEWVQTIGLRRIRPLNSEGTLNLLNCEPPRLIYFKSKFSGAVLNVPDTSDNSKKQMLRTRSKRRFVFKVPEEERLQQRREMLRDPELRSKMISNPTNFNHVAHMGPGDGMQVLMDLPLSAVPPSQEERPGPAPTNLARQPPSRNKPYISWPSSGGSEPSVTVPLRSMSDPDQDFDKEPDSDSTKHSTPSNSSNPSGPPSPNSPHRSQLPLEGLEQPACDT

## CCOc1nc(Nc2ccc(C(=O)N3CCOCC3)cc2OC)nc2[nH]ccc12
[1]
  Activity: 96.4%
[2]
  AUCt/dose: 1034 ng·h/g/mg/kg
[3]
  fraction unbound: 0.01
[4]
  Activity: 98.8%
[5]
  Activity: 94%
[6]
  Activity: 98.8%
[7]
  Activity: 69.6%
[8]
  Activity: 99.6%
[9]
  Activity: 36.5%
[10]
  Activity: 92.6%
[11]
  Activity: 95.6%
[12]
  Activity: 89.5%
[13]
  Activity: 95.6%
[14]
  Activity: 45.4%
[15]
  Activity: 97.7%
[16]
  Activity: 98%
[17]
  Activity: 96.4%
[18]
  Activity: 99%
[19]
  Activity: 88.1%
[20]
  Activity: 36.1%
[21]
  Activity: 87.5%
[22]
  Activity: 92.5%
[23]
  Activity: 102%
[24]
  Activity: 88%
[25]
  Activity: 86.5%
[26]
  Activity: 106%
[27]
  Activity: 83.3%
